Values of other authors, collected in patent US20050187172A1, “Combination of a Cox-2 inhibitor and a DNA topoisomerase I inhibitor for treatment of neoplasia” (priority 2003, published 2005).
Counter-ions that a name gives are not always drawn. Like-named read-outs stand apart in the source and are kept apart here.

Assays:
[1] = for Toxicity (reported toxic effects): Table 3, Toxicity column
[2] = mice, single IV infusion
[3] = not given; remark: listed apart in the source
[4] = Grade 2 or higher toxic effects
[5] = dose limiting hematological toxicity

SMILES: CC[C@@]1(O)C(=O)OCc2c1cc1n(c2=O)Cc2cc3c(CN(C)C)c(O)ccc3nc2-1 [Topotecan, 1H-Pyrano[3′,4′:6,7]indolizino[1,2-b]quinoline-3,14(4,H,12H)-dione, 10-[(dimethylamino)methyl]-4-ethyl-4,9-dihydroxy-, (S)-]
- Dose limiting toxicity (DLT) ([1]; in vivo): Myelosup-pression dose-
- Maximally tolerated dose ([1]; × 5 d every 3 to 4 wk): dose: 1.5 mg/m^2 × 5 d

SMILES: CN(C)CCNC(=O)c1cccc2cc3ccccc3nc12.Cl.Cl [XR-5000, 4-Acridinecarboxamide, N-[2-(dimethylamino)ethyl]-, dihydrochloride]
- Toxicity (reported toxic effects) [1]: infusion-related arm pain

SMILES: CCc1c2c(nc3ccc(OC(=O)N4CCC(N5CCCCC5)CC4)cc13)-c1cc3c(c(=O)n1C2)COC(=O)[C@]3(O)CC [Irinotecan hydrochloride, (4S)-4,11-diethyl-4-hydroxy-9-((4-piperidinopiperidino)carbonyloxy)-1H-pyrano(3′,4′:6,7)indolizino(1,2-b)quinoline-3,14(4H,12H)dione hydrochloride.]
- Lethality in mice: Lethality in mice: 111 mg/kg

SMILES: CC[C@@]1(O)C(=O)OCc2c1cc1n(c2=O)Cc2c-1nc1cc3c(cc1c2CN1CCN(C)CC1)OCCO3 [GG211]
- Dose limiting toxicity (DLT) ([1]; in vivo): Hematologic toxicity

SMILES: CC[C@@]1(O)C(=O)OCc2c1cc1n(c2=O)Cc2cc3c(CN(C)C)c(O)ccc3nc2-1 [Topotecan hydrochloride, (S)-10-((dimethylamino)methyl)-4-ethyl-4,9-dihydroxy-1H-pyrano (3′,4′:6,7)indolizino(1,2-B)quinoline-3,14-(4H,12H)-dione monohydrochloride]
- LD10 [2]: pression. LD10: mice 75 mg/m^2
- Dose limiting toxicity (DLT) ([1]; in vivo): DLT: Bone marrow sup-

SMILES: CC[C@@]1(O)C(=O)OCc2c1cc1n(c2=O)Cc2cc3c([N+](=O)[O-])cccc3nc2-1 [rubitecan, 1H-Pyrano[3′,4′:6,7]indolizino[1,2-b]quinoline-3,14(4H,12H)-dione, -4-ethyl-4-hydroxy-10-nitro-, (S)-]
- chemical cystitis [3, 4]: cystitis (25%),
- diarrhea [3, 4]: diarrhea (32%), chemical
- neutropenic sepsis [3, 4]: (21%), and weight loss
- weight loss [3, 4]: (18%).
- grade 4 anemia, share of patients [3, 5]: grade 4 anemia in 29%
- thrombocytopenia (grade 4), share of patients [3, 5]: 18%. Grade 2 or higher
- Maximum tolerated dose ([1]; over five consecutive days repeated every week): dose: 1.5 mg/m2/day

SMILES: CC[C@@]1(O)C(=O)OCc2c1cc1n(c2=O)Cc2cc3c(N)cccc3nc2-1 [9-aminocamptothecin, 1H-Pyrano[3′,4′:6,7]indolizino[1,2-b]quinoline-3,14(4H,12H)-dione, 10-amino-4-ethyl-4-hydroxy-, (S)-]
- Dose limiting toxicity (DLT) ([1]; in vivo): neutropenia.
- Maximum tolerated dose ([1]; in vivo): 45 mug/square mug/square metre/hr

SMILES: O=C1c2c(c3c4ccc(O)cc4n([C@@H]4O[C@H](CO)[C@@H](O)[C@H](O)[C@H]4O)c3c3[nH]c4cc(O)ccc4c23)C(=O)N1NC(CO)CO [J 107088, 5H-Indolo[2,3-a]pyrrolo[3,4-c]carbazole-5,7(6H)-dione, 12-β-D-glucopyranosyl-12,13-dihydro-2,10-dihydroxy-6-[[2-hydroxy-1-(hydroxymethyl)ethyl]amino]-]
- Maximum tolerated dose ([1]; in vivo): dose: 7.5 mg/m2

SMILES: CCc1c2c(nc3ccc(OC(=O)N4CCC(N5CCCCC5)CC4)cc13)-c1cc3c(c(=O)n1C2)COC(=O)[C@]3(O)CC [Irinotecan]
- Toxicity (reported toxic effects) [1]: Diarrhea and myelosup-
